In patent US20250099448A1, “HETEROCYCLIC COMPOUNDS” (Hoffmann-La Roche Inc., priority 2022, published 2025):

These compounds were tested against T1, MAGL protein (Homo sapiens, UniProt Q99685) (assay: 2-AG assay: MAGL inhibitory activity by hydrolysis of 2-arachidonoylglycerol to arachidonic acid, followed by mass spectrometry). Conditions: 8 μM 2-arachidonoylglycerol, 15 min preincubation, 30 min reaction at RT, RapidFire MS readout.
T1 sequence (Q99685 1-303): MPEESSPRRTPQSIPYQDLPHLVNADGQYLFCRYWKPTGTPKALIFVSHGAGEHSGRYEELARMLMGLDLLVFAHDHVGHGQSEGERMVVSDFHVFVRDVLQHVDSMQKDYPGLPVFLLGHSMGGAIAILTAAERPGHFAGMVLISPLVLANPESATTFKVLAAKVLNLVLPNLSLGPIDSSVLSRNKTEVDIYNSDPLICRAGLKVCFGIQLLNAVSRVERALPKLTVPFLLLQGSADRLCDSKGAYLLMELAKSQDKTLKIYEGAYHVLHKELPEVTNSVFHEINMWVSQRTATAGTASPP
Assay type: biochemical
Outline: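 Activity was measured by RapidFire SPE–triple-quad MS as the ratio of arachidonic acid to d8-arachidonic acid after 2-AG hydrolysis (8 μM substrate, 30 min, RT, acetonitrile quench). Compounds, tested from 12.5 μM down to […], were first preincubated 15 min with MAGL in TRIS/EDTA/Tween-20 buffer containing 2.5% DMSO.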

Structure (SMILES) | IC50 [nM]
O=C(N1CC2(CCC(Cc3ccc(C(F)(F)F)nc3)CC2)C1)N1CC2(CC(c3nnc(C4(O)CC4)[nH]3)C2)C1 [compound 141] | 10.6
O=C(N1CC(OCC2CCC(F)(F)CC2)C1)N1CC2(CC(c3nnc(C4CC4)[nH]3)C2)C1 [compound 326] | 22.8
O=C(N1CC(c2ccc(C3(C(F)(F)F)CC3)nc2)C1)N1CC2(CC(c3nnc(C4CC4)[nH]3)C2)C1 [compound 231] | 3.39
O=C(N1CC(C23CC(S(=O)(=O)c4ccc(C(F)(F)F)cn4)(C2)C3)C1)N1CC2(CC(c3nc(C4CC4)n[nH]3)C2)C1 [compound 807] | 478
O=C(N1CC2(CC(c3nc(C4CC4)n[nH]3)C2)C1)N1CC2(CC[C@H](Cc3cccc(S(=O)(=O)C(F)(F)F)c3)C2)C1 [compound 594] | 0.02
O=C(N1CC(C23CC(c4nnc(C5(C(F)(F)F)CC5)o4)(C2)C3)C1)N1CC2(CC(c3nc(C4(O)CC4)n[nH]3)C2)C1 [compound 573] | 904
NC(=O)C(c1ccc(F)cc1)C1CCN(C(=O)N2CC3(CC(c4nnc(C5CC5)[nH]4)C3)C2)CC1 (centres unmarked) [compound 362] | 106
O=C(N1CC(c2cnc(N3CC[C@@H](C(F)(F)F)C3)nc2)C1)N1CC2(CC(c3nc(C4CC4)n[nH]3)C2)C1 (single isomer, unassigned) [compound 265] | 4.38
O=C(N1CC2(CCN(Cc3cc(C(F)(F)F)sn3)CC2)C1)N1CC2(CC(c3nc(C4CC4)n[nH]3)C2)C1 [compound 432] | 3.45
O=C(N1CC2(CC(Cn3ccc(C4CC4)n3)C2)C1)N1CC2(CC(c3nc(C4CC4)n[nH]3)C2)C1 [compound 822] | 0.88
O=C(N1CC(C23CC(Nc4cnc(C(F)(F)F)cn4)(C2)C3)C1)N1CC2(CC(c3nc(C4CC4)n[nH]3)C2)C1 [compound 699] | 0.34
CS(=O)(=O)c1cc(CC2CC3(C2)CN(C(=O)N2CC4(CC(c5nc(C6CC6)n[nH]5)C4)C2)C3)cc(C(F)(F)F)c1 [compound 809] | 0.34
O=C(N1CC2(CC(c3cnc(C(F)(F)F)cn3)C2)C1)N1CC2(CC(c3nnc(C4CC4)[nH]3)C2)C1 [compound 67] | 5.86
CP(C)(=O)c1cc(F)cc(CC2CC3(C2)CN(C(=O)N2CC4(CC(c5nc(C6CC6)n[nH]5)C4)C2)C3)c1 [compound 680] | 1.71
O=C(N1CC(C23CC(NCC4(C(F)(F)F)CC4)(C2)C3)C1)N1CC2(CC(c3nc(C4(O)CC4)n[nH]3)C2)C1 [compound 825] | 4.37
CS(=O)(=O)c1cnn(CC2CC3(C2)CN(C(=O)N2CC4(CC(c5nc(C6CC6)n[nH]5)C4)C2)C3)c1 [compound 953] | 11.2
O=C(N1CC2(CC(Cn3nccc3C3CC3)C2)C1)N1CC2(CC(c3nc(C4CC4)n[nH]3)C2)C1 [compound 973] | 0.27
Cn1nccc1CN1CC2(C1)CN(C(=O)N1CC3(CC(c4nc(C5CC5)n[nH]4)C3)C1)C2 [compound 901] | 136
O=C(N1CC2(CC(Cc3cnn(CC(F)(F)F)c3)C2)C1)N1CC2(CC(c3nc(C4(O)CC4)n[nH]3)C2)C1 [compound 765] | 4.49

Structure (SMILES) | IC50 [nM]
O=C(N1CC2(CC(Cc3ncc(F)cc3F)C2)C1)N1CC2(CC(c3nnc(C4CC4)[nH]3)C2)C1 [compound 115] | 0.2
CC(C)(C)c1noc(CN2CC3(C2)CN(C(=O)N2CC4(CC(c5nnc(C6CC6)[nH]5)C4)C2)C3)n1 [compound 886] | 6.38
Cn1cc(-c2ccc(C3CN(C(=O)N4CC5(CC(c6nnc(C7CC7)[nH]6)C5)C4)C3)cc2)c(C(F)(F)F)n1 [compound 834] | 0.06
N#Cc1cc(C(F)(F)F)ccc1CC1CC2(C1)CN(C(=O)N1CC3(CC(c4nnc(C5CC5)[nH]4)C3)C1)C2 [compound 556] | 0.45
O=C(N1CC2(CC(Cc3cccc(S(=O)(=O)C(F)(F)F)c3)C2)C1)N1CC2(CC(c3nc(C4COC4)n[nH]3)C2)C1 [compound 728] | 4.19
COc1cc(F)cc(C23CC(C4CN(C(=O)N5CC6(CC(c7nc(C8CC8)n[nH]7)C6)C5)C4)(C2)C3)c1 [compound 705] | 0.57
O=C(N1CC(c2ccc(N3CC(C(F)(F)F)C3)nc2)C1)N1CC2(CC(c3nnc(C4(O)CC4)[nH]3)C2)C1 [compound 259] | 3.63
O=C(N1CC2(CCC(Cc3ccc(Cl)cn3)CC2)C1)N1CC2(CC(c3nnc(C4CC4)[nH]3)C2)C1 [compound 138] | 0.3
O=C(N1CC2(CC(Cc3ccc(C(F)(F)F)cc3F)C2)C1)N1CC2(CC(c3nc(C4COC4)n[nH]3)C2)C1 [compound 768] | 0.08
N#Cc1cc(CC2CC3(C2)CN(C(=O)N2CC4(CC(c5nnc(C6CC6)[nH]5)C4)C2)C3)cc(C(F)(F)F)n1 [compound 778] | 0.99
CC(C)(C)c1csc(CN2CC3(C2)CN(C(=O)N2CC4(CC(c5nc(C6CC6)n[nH]5)C4)C2)C3)n1 [compound 740] | 1.32
O=C(N1CC(C23CC(S(=O)(=O)CC4(C(F)(F)F)CC4)(C2)C3)C1)N1CC2(CC(c3nc(C4CC4)n[nH]3)C2)C1 [compound 528] | 497
O=C(N1CC2(CC(Cn3cnc(C(F)(F)F)c3)C2)C1)N1CC2(CC(c3nnc(C4(O)CC4)[nH]3)C2)C1 [compound 64] | 37.9
O=C(N1CC2(CC(c3nc(C(F)(F)F)n[nH]3)C2)C1)N1CC2(CN(Cc3ccc(S(=O)(=O)C(F)(F)F)cc3)C2)C1 [compound 850] | 13.7
Cc1csc(CN2CC3(C2)CN(C(=O)N2CC4(CC(c5nnc(C6CC6)[nH]5)C4)C2)C3)n1 [Example 895, [6-(5-cyclopropyl-4H-1,2,4-triazol-3-yl)-2-azaspiro[3.3]heptan-2-yl]-[6-[(4-methylthiazol-2-yl)methyl]-2,6-diazaspiro[3.3]heptan-2-yl]methanone] | 23.5
O=C(N1CC2(CC(Cc3cc(C(F)(F)F)n[nH]3)C2)C1)N1CC2(CC(c3nc(C4(O)CC4)n[nH]3)C2)C1 [compound 589] | 0.59
O=C(N1CC2(CC(c3nc(C4CC4)n[nH]3)C2)C1)N1CC2(CN(Cc3sncc3C(F)(F)F)C2)C1 [compound 700] | 2.56
O=C(N1CC2(CC(Oc3ccc(C(F)(F)F)nn3)C2)C1)N1CC2(CC(c3nnc(C4(O)CC4)[nH]3)C2)C1 [compound 79] | 43.4
O=C(N1CC2(CC(c3nc(C4CC4)n[nH]3)C2)C1)N1CC2(CN(Cc3cc(C4CC4)n[nH]3)C2)C1 [compound 900] | 25.3

Structure (SMILES) | IC50 [nM]
O=C(N1CC2(CC(Cn3cc(C(F)(F)F)cn3)C2)C1)N1CC2(CC(c3nc(C4COC4)n[nH]3)C2)C1 [compound 634] | 104
NC(=O)C1(c2ccc(C3CN(C(=O)N4CC5(CC(c6nnc(C7CC7)[nH]6)C5)C4)C3)cc2)CC1 [Example 393, 1-[4-[1-[6-(5-cyclopropyl-4H-1,2,4-triazol-3-yl)-2-azaspiro[3.3]heptane-2-carbonyl]azetidin-3-yl]phenyl]cyclopropanecarboaamide] | 1.2
CC(C)(C)n1nnc(C2(c3ccc(C4CN(C(=O)N5CC6(CC(c7nnc(C8CC8)[nH]7)C6)C5)C4)cc3)CC2)n1 [compound 365] | 0.06
O=C(N1CC2(CC(c3nc(C4CC4)n[nH]3)C2)C1)N1CC2(CN(Cc3ncc(C(F)F)s3)C2)C1 [compound 624] | 8.21
CS(=O)(=O)c1cc(CC2CC3(C2)CN(C(=O)N2CC4(CC(c5nc(C6(O)CC6)n[nH]5)C4)C2)C3)cc(C(F)(F)F)c1 [compound 670] | 1
O=C(N1CC2(CC(c3nnc(C4CC4)[nH]3)C2)C1)N1CC2(C1)CN(c1cnc(C(F)(F)F)cn1)C2 [compound 218] | 172
O=C(N1CC2(CC(Cn3cc(CC(F)(F)F)cn3)C2)C1)N1CC2(CC(c3nc(C4CC4)n[nH]3)C2)C1 [compound 690] | 0.61
O=C(N1CC2(CCC(OCC3(C(F)(F)F)CC3)CC2)C1)N1CC2(CC(c3nnc(C4(O)CC4)[nH]3)C2)C1 [compound 66] | 1.91
O=C(N1CC2(CC(Oc3ccc(Cl)cn3)C2)C1)N1CC2(CC(c3nc(C4CC4)n[nH]3)C2)C1 [compound 619] | 0.79
O=C(N1CC2(CCN(Cc3cccc(S(=O)(=O)C(F)(F)F)c3)CC2)C1)N1CC2(CC(c3nnc(C4CC4)[nH]3)C2)C1 [compound 180] | 0.91
Cc1ncsc1CN1CCN(C(=O)N2CC3(CC(c4nc(C5CC5)n[nH]4)C3)C2)CC1 [Example 880, [6-(3-cyclopropyl-1H-1,2,4-triazol-5-yl)-2-azaspiro[3.3]heptan-2-yl]-[4-[(4-methylthiazol-5-yl)methyl]piperazino]methanone] | 832
O=C(N1CC(C23CC(Cn4cc(C(F)(F)F)ccc4=O)(C2)C3)C1)N1CC2(CC(c3nc(C4CC4)n[nH]3)C2)C1 [compound 946] | 1.05
N=S(=O)(c1cccc(CC2CC3(C2)CN(C(=O)N2CC4(CC(c5nc(C6(O)CC6)n[nH]5)C4)C2)C3)c1)C(F)(F)F (centres unmarked) [compound 532] | 0.21
O=C(N1CC(C23CC(Oc4ccc(C(F)(F)F)cn4)(C2)C3)C1)N1CC2(CC(c3nc(C4CC4)n[nH]3)C2)C1 [compound 736] | 1.65
CS(=O)(=O)c1ccc(CC2CC3(C2)CN(C(=O)N2CC4(CC(c5ncn[nH]5)C4)C2)C3)cc1C(F)(F)F [compound 984] | 2770
O=C(N1CC2(CC(c3nnc(C4CC4)[nH]3)C2)C1)N1CC2(CN(Cc3ccc(C(F)(F)F)cn3)C2)C1 [compound 163] | 4.11
O=C(N1CC2(CC(c3nc(C4CC4)n[nH]3)C2)C1)N1CC2(CC(C(F)c3ccc(C(F)(F)F)nc3)C2)C1 (centres unmarked) [compound 845] | 9.83
Cn1ncc(C(F)(F)F)c1CC1CC2(C1)CN(C(=O)N1CC3(CC(c4nc(C5(O)CC5)n[nH]4)C3)C1)C2 [compound 777] | 1.27
